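All cell lines were grown in 96-well plates and treated with compound for 48 hours. The concentration for 50% growth inhibition is given as GI50. TGI denotes the concentration required for complete inhibition of growth.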

This passage reports TGI and GI50 results from PubChem BioAssay (NCI).

Holding throughout (assay): inhibition of tumour cell growth, NCI panel, 48 h
Assay [1] relates to OVCAR-5 ovarian.
The subject of assay [2] is MALME-3M melanoma.
Assay [3] concerns T-47D breast.
Assay [4] deals with SK-MEL-28 melanoma.
In assay [5] the test system is HT29 colon.
In assay [6] the test system is A549 NSCLC.
In assay [7] the test system is SK-OV-3 ovarian.
Assay [8] has as its system SF-539 CNS.
Assay [9] has as its system SK-MEL-2 melanoma.
Assay [10] has as its system SR leukemia.

Consider `CCOC(=O)c1nc2ccc(C(F)(F)F)cc2nc1Oc1cc(OC)cc(OC)c1`, for which the TGI in [1], in assay [2], in [3], in assay [4], in assay [5] and in [6] was above 100 µM in each case. Also, the TGI in assay [7], in assay [8] and in assay [9] was above 100 µM in each case.
`O=c1[nH]nc(-c2ccccc2)n1/N=C/c1cccnc1`: the TGI in [1], in assay [2], in assay [3], in assay [4], in assay [5] and in [6] was above 100 µM each time. Moreover, the TGI in assay [8] and in assay [10] was above 100 µM each time.
For the compound `O=C1C(=O)c2ccccc2C(O)=C1CCCc1ccc(Oc2ccccc2)cc1`, the TGI is above 100 µM in assay [1]; 75 µM in assay [2]; above 100 µM in assay [4]; 75.2 µM in assay [5]; above 100 µM in [7]; 28 µM in assay [8]. In addition, the TGI was 83.4 µM in assay [9] and above 100 µM in assay [10].
Regarding `CC1(C)[C@H]2CC[C@]1(C)[C@H](OC(=O)NNC(=O)O[C@@H]1C[C@@H]3CC[C@@]1(C)C3(C)C)C2`, the TGI in assay [1] is 34.1 µM; in [2], 33.8 µM; in assay [3], 23 µM; in assay [4], above 100 µM; in assay [5], 20.9 µM; in assay [6], 25.1 µM. Also, the TGI worked out at 28.6 µM in assay [7], 29.9 µM in assay [8] and 32.5 µM in [9].
Turning to `CCOP(=O)(OCC)C1CC(n2cc(C)c(=O)[nH]c2=O)OC1CO` (configuration not stated), the TGI in [1], in assay [2], in assay [3], in [4], in assay [5] and in [6] was above 100 µM each time. Also, the TGI in [8], in assay [9] and in assay [10] was above 100 µM each time.
Consider `COc1c(O)cc(O)c2c(=O)cc(-c3ccccc3)oc12`, for which the TGI in assay [1], in [2], in [4], in [5], in [6] and in assay [7] was above 100 µM in each case. Moreover, the TGI in assay [8], in [9] and in assay [10] was above 100 µM each time.
With `CCOC(=O)Cc1cc(OC)c(OC)cc1/C(Cl)=C(\C=O)c1ccc(OC)c(OC)c1`, the TGI in assay [2] is 74.3 µM; in [4], 65.7 µM; in [5], 29.2 µM; in [6], 57.1 µM; in assay [7] it was 86 µM; in assay [9], 62.9 µM.
`CC1(c2ccc[n+](Cc3ccccc3)c2)OCCO1`: the TGI in [1], in assay [2], in assay [5], in assay [6], in assay [7] and in assay [8] was above 100 µM in each case. Further, the TGI in assay [9] and in [10] was above 100 µM each time.
`COc1cc(C(C)c2cc3c(cc2OCCO)OCO3)cc(OC)c1OC` (configuration not stated): the TGI is above 100 µM in assay [1]; above 100 µM in assay [2]; above 100 µM in assay [5]; above 100 µM in [6]; 4.81 µM in assay [8]; above 100 µM in assay [9]. In assay [10], the TGI was found to be 0.932 µM.
With `Cc1ccc2c(c1C)C(=O)/C(=C/c1ccccc1C(=O)O)C2`, the TGI in [1], in assay [2], in [3], in [4], in [5] and in assay [6] was above 100 µM each time. The TGI in assay [8], in [9] and in assay [10] was above 100 µM throughout.
Consider `O=c1cc(N2CCN(c3cc(=O)n4ccccc4n3)CC2)oc2ccccc12`, for which the TGI is above 100 µM in assay [1]; above 100 µM in assay [2]; above 100 µM in assay [3]; above 100 µM in assay [4]; above 100 µM in assay [5]; above 87.8 µM in assay [6]. Further, the TGI in assay [7], in assay [8] and in assay [9] was above 100 µM throughout.
For the compound `CC1(C)CC(=O)c2c(nc3ccc4ccccc4c3c2-c2ccc(NC(=O)CCCCCCCCC(=O)Nc3ccc(-c4c5c(nc6ccc7ccccc7c46)CC(C)(C)CC5=O)cc3)cc2)C1`, the TGI in [1], in assay [3], in assay [4], in assay [5], in assay [6] and in assay [7] was above 100 µM in each case. The TGI in assay [8], in assay [9] and in assay [10] was above 100 µM throughout.
With `CN1CCN(CCCBr)CC1`, the TGI in assay [1], in [2], in assay [3], in assay [4], in [5] and in assay [6] was above 100 µM in each case. Also, the TGI in assay [7], in [8] and in assay [9] was above 100 µM in each case.
Turning to `CN(C)c1nc2oc(-c3ccccc3)c(-c3ccccc3)c2c2nnnn12`, the TGI in [1], in [3], in [4], in assay [5], in assay [6] and in assay [7] was above 100 µM each time. Further, the TGI in [8] and in [10] was above 100 µM throughout.
For the compound `COc1ccc(C2N(NC(=O)c3ccncc3)C(=O)CS2(=O)=O)cc1F` (configuration not stated), the TGI in assay [1], in assay [2], in assay [4], in assay [5], in assay [6] and in [7] was above 100 µM in each case. Moreover, the TGI in [9] and in assay [10] was above 100 µM throughout.
As for `COc1ccc(C(=O)Cc2ccc(Br)cc2)cc1OC`, the TGI in [1], in assay [2], in [5], in assay [6], in assay [7] and in assay [8] was above 100 µM each time. The TGI in assay [9] and in assay [10] was above 100 µM throughout.
Regarding `COC(=O)[C@H]1CO[C@H]2C/C(C)=C/CC/C(C)=C/CC[C@@]3(C)O[C@@H]3C[C@H]21`, the TGI was above 50 µM in assay [1]; above 50 µM in assay [3]; 34.9 µM in [4]; above 50 µM in assay [5]; above 50 µM in assay [6]; above 50 µM in assay [7]. For the same compound, the TGI in [8] was above 50 µM; in assay [9], above 50 µM; in [10], 27.1 µM.
`COc1ccc(C(=O)/C=C/c2c(Cl)c3c(c(OC)c2Cl)OCC(=O)N3)cc1`: the GI50 in assay [1] is 3.86 µM; in [2], 2.28 µM; in assay [4], 2.18 µM; in assay [6], 3.61 µM; in [7], 3.59 µM; in assay [8] it was 2.21 µM. Further, the GI50 is 2.19 µM in [9] and 1.15 µM in assay [10]. In addition, the TGI in [1] is above 100 µM; in assay [2], 4.99 µM; in assay [4], 5.22 µM; in assay [6], above 100 µM; in [7], 27.1 µM; in assay [8], 4.85 µM. The TGI came out at 5.94 µM in assay [9] and 7.45 µM in assay [10].
Take `NNC(=O)Cn1c2ccc(Br)cc2c2nc3ccccc3nc21`: the TGI in assay [1], in [3], in assay [4], in [5], in assay [6] and in assay [7] was above 100 µM throughout. Further, the TGI in assay [8], in assay [9] and in assay [10] was above 100 µM each time.
Turning to `COc1ccc(-c2cc(-c3ccc(Nc4ccnc5cc(Cl)ccc45)cc3)[nH]c(=O)c2C#N)c2ccccc12`, the TGI in assay [1] was above 100 µM; in assay [2], 8.01 µM; in [4], 42.3 µM; in [6] it was above 52.9 µM; in assay [7] it was 43.7 µM; in assay [9], above 100 µM. Moreover, the TGI in assay [10] was determined as 2.6 µM.
Regarding `C(CCCCc1nnc(N2CCCCC2)o1)CCCc1nnc(N2CCCCC2)o1`, the TGI in assay [1], in assay [2], in [4], in [5], in [6] and in [7] was above 100 µM in each case. Moreover, the TGI in assay [8] and in assay [9] was above 100 µM in each case.
Turning to `c1cn(C23C4C5C6C4C2C6C53)cn1` (configuration not stated), the TGI in assay [1], in [3], in assay [4], in [5], in assay [6] and in assay [7] was above 100 µM throughout. In addition, the TGI in assay [8], in assay [9] and in assay [10] was above 100 µM each time.
Consider `CC(=O)Oc1c2oc3ccc(Cl)cc3c(=O)c2c(O)c2ccsc12`, for which the TGI in assay [1] was above 100 µM; in assay [2] it was above 100 µM; in [3], 86.7 µM; in [4] it was above 100 µM; in assay [5], above 100 µM; in [6], above 100 µM. In addition, the TGI in assay [7], in [8] and in [9] was above 100 µM throughout.
`COc1cc2cc[n+]3c(C)c4cc(OC)c(OC)cc4c([O-])c3c2cc1OC`: the TGI in assay [1] is above 100 µM; in assay [2] it was 79.7 µM; in assay [4], above 100 µM; in assay [5], above 100 µM; in assay [6], above 100 µM; in [7] it was above 100 µM. Moreover, the TGI in assay [8], in assay [9] and in assay [10] was above 100 µM each time.
As to `COc1ccc(-n2c(=O)n(C)c(=O)n2-c2ccc(OC)cc2)cc1`, the TGI in assay [1], in assay [3], in assay [4], in assay [5], in assay [6] and in [7] was above 100 µM each time. For the same compound, the TGI in assay [8], in [9] and in [10] was above 100 µM in each case.
Take `CCOC(=O)c1cc2c(C(=O)c3ccc([N+](=O)[O-])cc3)c(C(C)=O)ccc2[nH]1`: the TGI in [1] was above 100 µM; in assay [3], above 100 µM; in assay [4], above 100 µM; in assay [5], above 100 µM; in assay [6], above 100 µM; in [7], 51.3 µM. The TGI in assay [8], in [9] and in assay [10] was above 100 µM throughout.
For `N#Cc1ccccc1-c1nc2c3c(c(N)ccc3n1)C(=O)c1ccccc1-2`, the TGI in [1], in assay [2], in assay [3], in assay [4], in assay [5] and in assay [6] was above 100 µM throughout. For the same compound, the TGI in assay [7], in assay [8] and in [9] was above 100 µM throughout.
`CCOC(=O)C(NC(=O)CC)(Nc1cc(C)on1)C(F)(F)F` (configuration not stated): the TGI in assay [1], in assay [3], in assay [4], in assay [5], in assay [6] and in [8] was above 100 µM throughout. Besides, the TGI in [9] and in assay [10] was above 100 µM in each case.
Regarding `CC1(O)CC(=O)c2c(cc3ccc(-c4c5c(c(O)c6c(O)cccc46)C(=O)CC(C)(O)C5)c(O)c3c2O)C1` (configuration not stated), the TGI is 8.66 µM in [1]; 1.61 µM in [2]; 7.01 µM in [4]; 3.96 µM in assay [5]; 11.1 µM in [6]; above 100 µM in assay [7]. Besides, the TGI in assay [8] was 2.34 µM; in [9] it was 0.897 µM; in [10], 7.06 µM.
With `O=C(O)c1ccn(-c2cccc(-n3ccc(C(=O)O)n3)n2)n1`, the TGI in assay [1], in assay [2], in [4], in assay [5], in assay [6] and in assay [7] was above 100 µM each time. For the same compound, the TGI in assay [8], in [9] and in assay [10] was above 100 µM each time.
